Source: patent publication US20220105157A1, “Compositions and Methods for Promoting Angiogenesis in the Eye” (The Regents of the University of California, priority 2019, published 2022)

Key:
mouse choroidal explants = test: Mouse choroidal explant assay (ex vivo sprouting); assay type: cell-based; conditions: LIF 10 ng/ml, compared with control
Method: In a 48-well plate, 60 μL of growth factor-reduced basement membrane extract (GFR-BME) (Corning, CAT #354230) was added to each well and allowed to solidify at 37° C. for 20 minutes. A dice of the peripheral choroid-scleral complex (approximately 1 mm×1 mm), dissected from male C57BL/6J mice (age P20), was added to the center of each well as previously described (23). A top layer of 60 μL GFR-BME was added to each well, followed by incubation at 37° C. for 30 minutes. Upon adding 500 μL of endothelial cell growth basal medium EBM-2 (Lonza, CAT #CC3156) supplemented with 2% FBS and antibiotics, endogenous VEGF activity of choroid explants was blunted by 5 μg/ml of anti-VEGF Mab B20-4.1.1. After 90 minutes of incubation with the antibody, 10 ng/ml of LIF or PBS control was added in the test wells. Tissues were incubated in standard cell culture conditions with 5% CO2 and fresh media were changed every 48 hours. Phase contrast Z-stack images of each explants were taken on day 5 using a Keyence microscope. Vessel sprouting areas were quantified using ImageJ software. The experiment was repeated three times and data were obtained by analyzing 5 replicates per each condition each time.

[1] = system: phosphorylation of STAT3, ERK and AKT in BCE cells; test: Western blotting of LIF signaling in BCE cells; assay type: cell-based, bovine; conditions: LIF treatment for 15 minutes
Method: BCE and BAE cells were cultured in growth medium overnight. Growth medium was removed and then cells were washed twice with PBS. Recombinant human LIF was added to cells for 15 minutes, following 3-hour incubation in the following medium: DMEM-low glucose supplemented with 10% BCS, 2 mM glutamine and antibiotics for BCE cells, and DMEM-low glucose supplemented with 1% BCS and antibiotics for BAE cells. […] Cells were then lysed with RIPA lysis buffer (Life Technologies, CAT #89901) plus protease and phosphatase inhibitor cocktail (ThermoFisher Scientific CAT #78440). Protein concentrations in cell lysates were measured with the BCA assay (ThermoFisher Scientific CAT #23227). Equal amount of proteins were subjected to electrophoresis in NuPAGE 4-12% Bis-Tris gels (ThermoFisher Scientific, CAT #NW04125BOX) and then transferred onto PVDF membranes. Membranes were blocked with 5% non-fat milk in TBST at room temperature for 1 hour, incubated with primary antibodies indicated below in TBST containing 0.5% non-fat milk at 4° C. overnight then with secondary HRP-conjugated antibodies (1:2000, GE Healthcare) at room temperature for 1 h. Signals were developed with SuperSignal™ West Pico PLUS Chemiluminescent Substrate (ThermoFisher Scientific). Primary antibodies used: anti-phospho-STAT3 (Cell Signaling, CAT #9131, 1:3000), anti-STAT3 (Cell Signaling, CAT #4904, 1:3000), anti-phospho-ERK (Cell Signaling, CAT #4376, 1:5000), anti-ERK (Cell Signaling, CAT #4695, 1:5000), anti-phospho-AKT Ser473 (Cell Signaling, CAT #4060, 1:2000), anti-AKT (Cell Signaling, CAT #4691, 1:2000) and HRP-conjugated anti-beta-actin (Sigma, CAT #AC-15, 1; 10000).

BAE cells = test: Gene and protein expression in LIF-treated BAE cells (RNA-seq, qRT-PCR, cathepsin L ELISA); assay type: cell-based, bovine
Method: VEGF and LIF levels in LN-229 CM samples were determined by a human VEGF ELISA kit (R&D Systems, CAT #DVE00) and a human LIF ELISA kit (Biolegend, CAT #443507) according to manufacturers' instructions, respectively. Cathepsin L levels in BAE cells were measured using a bovine cathepsin L ELISA kit (MyBioSource, Inc, CAT #MBS2887609) per manufacturer's instructions.
BCE and BAE cells, after the indicated treatments, were lysed with Trizol reagent (Invitrogen, CAT #15596026) and subjected to RNA extraction following manufacturer's instructions. RNA concentrations were determined with Nanodrop 2000 (ThermoFisher Scientific) and 1 μg of total RNAs were reverse-transcribed to cDNAs using the High-Capacity cDNA Reverse Transcription Kit (Applied Biosystems, CAT #4368814). Equal amounts (generally 10 ng/reaction) of cDNAs were subjected to qRT-PCR analyses using the TaqMan Fast Advanced Master Mix (Applied Biosystems, CAT #4444557) and the ViiA7 Real-time PCR system. Relative mRNA levels of the examined genes were normalized to the internal control RPLP0 (Ribosomal Protein Lateral Stalk Subunit P0), determined by comparing with control sample group, and reported as fold changes. TaqMan gene expression assay probes were used: bovine RPLP0 (Bt03218086_ml), bovine STAT3 (Bt03259865_ml), bovine CTSL1 (Bt03257307_ml and Bt03257309_ml), bovine CTSB (Bt03259161_ml), bovine MYC (Bt03260377_ml), bovine JunB (Bt03246919_s1), bovine CCNA2 (Bt03240503_g1), bovine CCNB1 (Bt03237853_g1), and bovine PIM1 (Bt03212957_ml). The experiment was carried out in triplicate and repeated three times.

LIF: recombinant human leukemia inhibitory factor, a member of the IL-6 family of cytokines
microvascular outgrowth from the choroidal explant into the matrigel (mouse choroidal explants): significantly enhanced | AKT phosphorylation [1]: little effects | phosphorylation of ERK [1]: elicited phosphorylation | phosphorylation of STAT3 [1]: elicited phosphorylation | upregulation of IGFBP3 (BAE cells; BAE cells incubated with LIF for 6 hours, RNA-seq, confirmed by qRT-PCR): approximately 8 fold | cyclin A/B expression (BAE cells; BAE cells, LIF 10 ng/ml 24 hours, qRT-PCR): downregulation | CTSB (cathepsin B) levels (BAE cells; BAE cells, LIF 24 hours): not CTSB | CTSL (cathepsin L) mRNA and protein levels (BAE cells; BAE cells, LIF 24 hours): dramatically upregulated | PIM1 expression (BAE cells; BAE cells, LIF treatment): induction
